The results in this text go back to ChEMBL document CHEMBL1201862, “PubChem BioAssay data set” (2004).

Some test systems named below: NCI-H23; MDA-MB-231; K562; OVCAR-8; 786-0; OVCAR-4; SNB-75; IGROV-1; SK-MEL-2; MCF7; MDA-MB-435; EKVX; CAKI-1; OVCAR-3; KM12; HL-60; HOP-62; A549; UO-31; BT-549.
Common to all, as to assay: DTP human tumour cell line panel, 48 h

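Step 1: Grow cells in 96-well plates. Step 2: Expose to compound for 48 hours at 5 concentrations. Step 3: Interpolate endpoints linearly; if unreached, use highest concentration. GI50 = concentration required for 50% inhibition of growth.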 Calls of active or inactive are those of the source. Cut-off read from the data, not from the text of the source: active = GI50 up to about 1.1 µM and inactive = higher. Non-standard residues stand in square brackets, D forms with d. Residues, ends and D or L forms follow the SMILES beside them.

Take `O=C1NCC2(CCNCC2)N1c1ccccc1`: the GI50 with NCI-H23, in the assay on MDA-MB-231, in the assay on K562, with OVCAR-8, in the assay on 786-0 and with OVCAR-4 was > 100 µM (inactive) throughout. For the same molecule, the GI50 with SNB-75, in the assay on IGROV-1, in the assay with SK-MEL-2, in the assay with MCF7, in the assay on MDA-MB-435 and in the assay with EKVX was > 100 µM (inactive) throughout. The GI50 in the assay with CAKI-1, in the assay on OVCAR-3, in the assay with KM12, with HL-60, with HOP-62 and in the assay with A549 was > 100 µM (inactive) each time.
Regarding `CSCC[C@H](NC(=O)[C@@H](N)CC(N)=O)C(=O)N[C@@H](Cc1c[nH]c2ccccc12)C(=O)N[C@@H](CCC(N)=O)C(=O)N[C@@H](CCC(=O)O)C(=O)N[C@H](C(=O)NCC(=O)N[C@@H](CCCCN)C(=O)N[C@H](C)C(=O)O)C(C)C` (H-NMWQEVGK[dA]-OH), the GI50 in the assay on NCI-H23, in the assay on MDA-MB-231, in the assay with K562, in the assay with OVCAR-8, in the assay on 786-0 and in the assay on OVCAR-4 was > 100 µM (inactive) throughout. In addition, the GI50 in the assay with SNB-75, in the assay on IGROV-1, in the assay with MCF7, with MDA-MB-435, in the assay on EKVX and in the assay on CAKI-1 was > 100 µM (inactive) throughout. The GI50 with OVCAR-3, with KM12, with HL-60, with HOP-62 and in the assay on A549 was > 100 µM (inactive) each time.
Turning to `Cc1cc(-c2cscn2)c(O)c([N+](=O)[O-])c1`, the GI50 was 58.3 µM (inactive) in the assay on NCI-H23; 34.2 µM (inactive) in the assay with K562; 48.3 µM (inactive) in the assay with OVCAR-8; 60.8 µM (inactive) in the assay on 786-0; 82.6 µM (inactive) in the assay on OVCAR-4; 55 µM (inactive) in the assay on IGROV-1. For the same molecule, the GI50 was 85.1 µM (inactive) with SK-MEL-2; 21.4 µM (inactive) in the assay on MCF7; 50.2 µM (inactive) in the assay on UO-31; 77.6 µM (inactive) in the assay on BT-549; 74.3 µM (inactive) in the assay with MDA-MB-435; 65.8 µM (inactive) in the assay with EKVX. Besides, the GI50 in the assay on CAKI-1 is 43 µM (inactive); with HL-60, 34.8 µM (inactive); with HOP-62, 52.7 µM (inactive); in the assay on A549, 46.6 µM (inactive).
Turning to `FC1(F)[Se]C2C3CCC(C3)C2C1(F)F` (configuration not stated), the GI50 was > 100 µM (inactive) with MDA-MB-231; > 100 µM (inactive) with OVCAR-8; > 100 µM (inactive) in the assay on 786-0; > 100 µM (inactive) in the assay on OVCAR-4; 97.3 µM (inactive) with SNB-75; > 100 µM (inactive) in the assay on IGROV-1. Besides, the GI50 in the assay on SK-MEL-2, with MCF7, in the assay on UO-31, in the assay with MDA-MB-435, in the assay with EKVX and in the assay with CAKI-1 was > 100 µM (inactive) each time. Further, the GI50 with OVCAR-3, in the assay with KM12, in the assay on HOP-62 and in the assay on A549 was > 100 µM (inactive) throughout.
As to `CC(C)OCC(O)COc1ccc2ccc(=O)oc2c1` (configuration not stated), the GI50 with NCI-H23, in the assay with MDA-MB-231, in the assay with K562, in the assay with OVCAR-8, in the assay with 786-0 and with OVCAR-4 was > 100 µM (inactive) each time. For the same molecule, the GI50 in the assay on SNB-75, with IGROV-1, in the assay with MCF7, with UO-31, in the assay on MDA-MB-435 and with EKVX was > 100 µM (inactive) each time. For the same molecule, the GI50 in the assay on CAKI-1, in the assay with OVCAR-3, in the assay on KM12, in the assay on HL-60, with HOP-62 and in the assay on A549 was > 100 µM (inactive) in each case.
On to `CC1=C(N2CC2)C(=O)c2ccccc2C1=O`, for which the GI50 was 13.8 µM (inactive) with MDA-MB-231; 0.783 µM (active) in the assay on K562; 0.506 µM (active) with OVCAR-8; 0.871 µM (active) in the assay on 786-0; 0.918 µM (active) in the assay with OVCAR-4; 0.462 µM (active) with SNB-75. Moreover, the GI50 in the assay with IGROV-1 was 1.47 µM (inactive); with SK-MEL-2 it was 1.54 µM (inactive); in the assay on MCF7, 0.249 µM (active); with UO-31, 0.78 µM (active); in the assay on MDA-MB-435 it was 1.51 µM (inactive); in the assay with EKVX, 0.136 µM (active). Also, the GI50 was 0.556 µM (active) in the assay with CAKI-1; 1.12 µM (inactive) in the assay on OVCAR-3; 1.13 µM (inactive) in the assay with KM12; 2.52 µM (inactive) in the assay with HL-60; 1.04 µM (active) in the assay with HOP-62; 0.566 µM (active) in the assay with A549.
Turning to `COc1ccc(NC(=O)CC(=O)N2N=C(C)C(/N=N/c3ccc(C(=O)O)cc3)C2=O)cc1` (configuration not stated), the GI50 in the assay on NCI-H23, in the assay on MDA-MB-231, in the assay with K562, with OVCAR-8, in the assay with 786-0 and with OVCAR-4 was > 100 µM (inactive) each time. Also, the GI50 is 77.3 µM (inactive) in the assay with SNB-75; > 100 µM (inactive) with IGROV-1; > 100 µM (inactive) in the assay on SK-MEL-2; > 100 µM (inactive) in the assay on MCF7; > 100 µM (inactive) with UO-31; > 100 µM (inactive) in the assay with MDA-MB-435. Further, the GI50 in the assay on EKVX is > 100 µM (inactive); in the assay with CAKI-1 it was > 100 µM (inactive); in the assay on OVCAR-3, > 100 µM (inactive); in the assay with KM12 it was 71.8 µM (inactive); in the assay with HL-60, > 100 µM (inactive); in the assay with HOP-62, > 100 µM (inactive). The GI50 in the assay on A549 was > 100 µM (inactive).
Turning to `CCN(CC)CCOCCn1c2c(c3ccccc31)CCCC2`, the GI50 in the assay with NCI-H23 is 35.8 µM (inactive); with MDA-MB-231, 18 µM (inactive); with K562, 13.6 µM (inactive); in the assay on OVCAR-8, 33.7 µM (inactive); in the assay with 786-0, 16.2 µM (inactive); in the assay with OVCAR-4 it was 26 µM (inactive). For the same molecule, the GI50 is 34.8 µM (inactive) with SNB-75; 18.9 µM (inactive) with IGROV-1; 15.7 µM (inactive) with SK-MEL-2; 18.2 µM (inactive) in the assay with MCF7; 14.5 µM (inactive) in the assay with UO-31; 17.8 µM (inactive) in the assay on MDA-MB-435. In addition, the GI50 with EKVX was 40.2 µM (inactive); in the assay on OVCAR-3, 35.5 µM (inactive); in the assay with KM12, 34.5 µM (inactive); in the assay with HL-60, 9.73 µM (inactive); with HOP-62 it was 17.2 µM (inactive); in the assay with A549, 23.9 µM (inactive).
With `CC(C)COP(C)(=O)C(N)(C(F)(F)F)C(F)(F)F` (configuration not stated), the GI50 in the assay with NCI-H23, in the assay on MDA-MB-231, with K562, in the assay with OVCAR-8, in the assay with 786-0 and with OVCAR-4 was > 100 µM (inactive) each time. The GI50 was 7.78 µM (inactive) with SNB-75; > 100 µM (inactive) with IGROV-1; > 100 µM (inactive) with SK-MEL-2; > 100 µM (inactive) in the assay on MCF7; > 100 µM (inactive) with UO-31; > 100 µM (inactive) in the assay with MDA-MB-435. For the same molecule, the GI50 in the assay with EKVX, with CAKI-1, in the assay on OVCAR-3, with KM12, in the assay with HL-60 and in the assay with HOP-62 was > 100 µM (inactive) in each case. The GI50 in the assay on A549 is > 100 µM (inactive).
As for `CC(C)(C)/N=c1/n(C(C)(C)C)oc(=O)n1-c1ccccc1`, the GI50 with NCI-H23, in the assay on MDA-MB-231, in the assay on K562, in the assay with OVCAR-8, with 786-0 and in the assay with OVCAR-4 was > 50 µM (inactive) throughout. Besides, the GI50 is 35.6 µM (inactive) in the assay on SNB-75; > 50 µM (inactive) in the assay on IGROV-1; > 50 µM (inactive) in the assay with SK-MEL-2; > 50 µM (inactive) in the assay with MCF7; > 50 µM (inactive) in the assay with UO-31; > 50 µM (inactive) in the assay on MDA-MB-435. Further, the GI50 is > 50 µM (inactive) in the assay with EKVX; > 50 µM (inactive) in the assay with CAKI-1; > 50 µM (inactive) with OVCAR-3; > 50 µM (inactive) with KM12; 41.1 µM (inactive) in the assay on HL-60; > 50 µM (inactive) with HOP-62. Further, the GI50 with A549 is > 50 µM (inactive).
`O=C(CN1CCCCC1)c1ccc2c(c1)Sc1ccccc1O2`: the GI50 was 13.1 µM (inactive) with NCI-H23; 16.7 µM (inactive) in the assay with MDA-MB-231; 57 µM (inactive) in the assay on K562; 16.9 µM (inactive) with OVCAR-8; 14.8 µM (inactive) with 786-0; 13 µM (inactive) in the assay on OVCAR-4. Moreover, the GI50 with SNB-75 is 11.6 µM (inactive); in the assay on IGROV-1, 10.6 µM (inactive); in the assay on SK-MEL-2 it was 18.7 µM (inactive); in the assay with MCF7, 15.9 µM (inactive); with UO-31, 10.4 µM (inactive); in the assay with MDA-MB-435, 14.5 µM (inactive). The GI50 with EKVX was 17.1 µM (inactive); in the assay with CAKI-1, 18.3 µM (inactive); in the assay with OVCAR-3 it was 15.3 µM (inactive); in the assay with KM12 it was 16 µM (inactive); in the assay with HL-60, 14.2 µM (inactive); in the assay with HOP-62 it was 16.1 µM (inactive). The GI50 in the assay on A549 is 14.2 µM (inactive).

As a reminder, the GI50 is the concentration at which growth is held to half of that of the control.
